# In US8324395B2, “Heterocyclic compound and use thereof” (Takeda Pharmaceutical Company Limited, priority 2007, dated 2012):
# Experiments:
# [1] = test system: human colon cancer cell HT-29; test: Colon cancer cell HT-29 growth suppressive action in vitro; type: cell-based; conditions: 72 h, HT-29 cells, 3 days culture, SRB staining of cell protein
# Method: A cell suspension (100 μL, 3,000 cells/well) of human colon cancer cell HT-29 (purchased from ATCC) was plated in a 96-well plate, and the cells were cultured at 37° C. in a 5% carbon dioxide gas incubator. The next day, 2-fold serial dilution of each test compound solution (diluted from maximum concentration 20 μM) (100 μL) was added, and the cells were cultured for 3 days. The culture medium containing the test compound was removed, and the cells were washed with phosphate buffer (PBS). A 50% trichloroacetic acid solution was added to the final concentration of 10% (v/v), and the mixture was stood overnight at 4° C., whereby the cells were fixed to the plate. Then, a dye SRB 0.4% (w/v) solution (dissolved in 1% acetic acid) was added at 50 μl/well, whereby the cell protein was fixed and stained (Skehan et al., Journal Of National Cancer Institute, vol. 82, pp. 1107-1112, 1990). The cells were washed 3 times with 1% acetic acid solution (200 μL/well), and 100 μL of an extract (10 mM Tris buffer) was added to extract the dye. The absorbance at an absorption wavelength […] was measured, and cell amount was measured as a protein amount. Taking the protein amount of the control group free of the test compound solution as 100%, the proportion of the residual protein amount of each treatment group was determined and the concentration of the compound necessary for suppressing the residual cell amount to 50% of the control (IC50 value) was calculated.
# [2] = biological target: T1, BRAF (V600E) kinase (Homo sapiens, UniProt P15056, V600E); test: Determination of BRAF (V600E) kinase inhibitory activity; type: biochemical; conditions: 1.0 μM test compound; BRAF (V600E) enzyme, GST-MEK1 (K96R) substrate, [γ-32P]ATP; read-out: Inhibitory rate (%) at 1.0 μM
# T1 construct: Flag (N); made in house; host or cells: SF-21 insect cells, recombinant baculovirus BAC-V600E
# Method: Human BRAF gene was cloned by PCR using human Testis cDNA library (Clontech) as a template. The primer used for PCR was prepared from base sequence (Genbank Accession No.: NM_004333) information of BRAF gene by adding a base sequence encoding flag peptide and a recognition sequence of the restriction enzyme to area encoding the BRAF kinase domain region, so that the protein contains an N-terminal. Flag. The primer base sequence is shown below.
# The PCR reaction was conducted using Pyrobest (Takara Shuzo Co., Ltd). The obtained PCR product was electrophoresed on agarose gel (1%), the DNA fragment amplified by PCR was recovered from the gel, and then digested with restriction enzymes EcoRI and SalI. The DNA treated with the restriction enzymes was electrophoresed on agarose gel (1%), and the obtained DNA fragment was recovered. The recovered DNA fragment was ligated to plasmid pFASTBAC1 (Invitrogen) digested with restriction enzymes EcoRI and SalI to give expression plasmid pFB-BRAF, and the base sequence of the insert fragment was confirmed. In addition, mutation was introduced into V600E using a Quick change Site Directed Mutagenesis kit (Stratagene). The base sequences of the primers used are shown in the following.
# The obtained plasmid was sequenced to confirm the introduction of mutation into V600E. The DNA was digested with restriction enzymes EcoRI and SalI, DNA treated with the restriction enzymes was electrophoresed on agarose gel (1%), and the obtained DNA fragment was recovered. The recovered DNA fragment was ligated to plasmid pFASTBAC1 (Invitrogen) digested with restriction enzymes EcoRI and SalI to give expression plasmid pFB-V600E.
# Using BAC-TO-BAC Baculovirus Expression System (Invitrogen), virus stock BAC-V600E of recombinant baculovirus was prepared.
# SF-21 cells were sown at 1×10^6 cells/mL to Sf-900II SFM medium (1 L, Invitrogen) containing 10% fetal bovine serum (Trace), 50 mg/L Gentamicin (Invitrogen) and 0.1% Pluronic F-68 (Invitrogen), and shaking culture was performed using a 2 L volume Erlenmeyer flask at 27° C., 100 rpm. After culturing for 24 hr, recombinant baculovirus BAC-V600E (13.4 mL) was added to the mixture, and the mixture was further cultured for 3 days. The culture medium was centrifuged at 2,000 rpm for 5 min to give virus-infected cells. The infected cells were washed with a phosphate buffered saline (Invitrogen), centrifuged under the same conditions, and the cells were preserved at −80° C. The cryopreserved cells were thawed in ice, suspended in buffer A (50 mM Tris buffer (30 mL, pH 7.4) containing 20% glycerol, 0.15 M NaCl) supplemented with Complete Protease Inhibitor (Boehringer), and ruptured 3 times with a Polytron homogenizer (Kinematica) at 20,000 rpm for 30 sec. The ruptured medium was clarified by centrifugation at 40,000 rpm for 30 min and filtered with a 0.45 μm filter. The filtrate was passed through a column packed with Anti-FLAG M2 Affinity Gel (4 mL, Sigma) at a flow rate of about 0.5 mL/min. The column was washed with buffer A, and eluted with buffer A containing 100 μg/mL of FLAG peptide. The buffer of this eluate was exchanged using NAP25 column (Amersham Bioscience) equilibrated with buffer A and the fractions were cryopreserved at −80° C.
# A test compound (2.5 μL) dissolved in dimethyl sulfoxide (DMSO) was added to 37.5 μL of a reaction mixture (25 mM HEPES (pH 7.5), 10 mM magnesium acetate, 1 mM dithiothreitol) containing BRAF (V600E) enzyme (30 ng) and recombinant type protein GST-MEK1 (K96R) 250 ng, and the mixture was incubated at room temperature for 10 min. ATP solution (10 μL, 2.5 μM ATP, 0.1 μCi [γ-^32P]ATP) was added to the obtained mixture, and the mixture was reacted at room temperature for 20 min. The reaction was quenched by adding 50 μL of ice-cooled. 20% trichloroacetic acid (Wako Pure Chemical Industries, Ltd.) to the reaction mixture. […]
# [3] = test system: Colon Cancer Cell HT-29 Intracellular MEK Phosphorylation; test: Colon cancer cell HT-29 intracellular MEK phosphorylation inhibitory action in vitro; type: cell-based; conditions: Homo sapiens; HT-29 cells, 2 hr treatment; phosphorylated MEK1/2 (Ser217/221) by Western blot
# Method: A cell suspension (500 μL) of human colon cancer cell HT-29 was plated in a 48-well plate (100,000 cells/well), and the cells were cultured overnight at 37° C. in the presence of 5% CO2, treated with a test compound (250 μL/well) diluted in 3-fold dilution series and cultured for two more hours. After 2 hr, the culture medium containing the test compound was removed, and the cells were lysed with SDS sample buffer (100 μL/well) and heated at 95° C. for 5 min. Thereafter, the cells were applied to SDS-PAGE, and the protein was transferred onto Sequi-Blot™ PVDF Membrane (Bio-Rad) by the Western blot method. The cells were blocked with a block-Ace solution (Snow Brand Milk Products Co., Ltd) dissolved in phosphate buffer to 5% W/V, and reacted overnight with anti-phosphorylated MEK1/2 (Ser217/221) (Cell signaling #9121) diluted 1000-fold with phosphate buffer containing 0.4% block-Ace. The membrane was washed with phosphate buffer containing 0.1% Tween 20 (Wako Pure Chemical Industries, Ltd.), and reacted at room temperature for 1 hr with HRP labeled […] (Cell signaling #7074) diluted 1000-fold with phosphate buffer containing 0.4% block-Ace. The membrane was washed in the same manner as above, chemical luminescence of a phosphorylated MEK1/2 protein labeled with the antibody, which was caused by ECL-plus Detection Reagent (Amersham bioscience), was detected by Luminescent Image Analyzer LAS-1000 (FUJIFILM Corporation). Taking the luminescence of the control group free of the test compound as 100%, the concentration (IC50 value) of the compound necessary for inhibiting the residual luminescence to 50% of the control group was calculated.
# T1 sequence (P15056 457-717 V600E limits assumed): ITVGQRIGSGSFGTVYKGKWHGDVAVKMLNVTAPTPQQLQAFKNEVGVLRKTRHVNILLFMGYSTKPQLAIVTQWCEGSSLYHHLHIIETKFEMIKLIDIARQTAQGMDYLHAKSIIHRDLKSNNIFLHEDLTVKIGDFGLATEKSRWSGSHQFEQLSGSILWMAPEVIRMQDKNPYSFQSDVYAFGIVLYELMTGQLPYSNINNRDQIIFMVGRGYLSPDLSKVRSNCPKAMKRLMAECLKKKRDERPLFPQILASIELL
SMILES,IC50 [1] [nM],inhibition at 1 µM [2] [%],IC50 [3] [nM]
"O=C(Nc1cccc(Oc2ccc3nc(NC(=O)C4CC4)sc3c2)c1)c1cccc(C(F)(F)F)c1 [Example A2, N-[3-({2-[(cyclopropylcarbonyl)amino]-1,3-benzothiazol-6-yl}oxy)phenyl]-3-(trifluoromethyl)benzamide]",< 500,–,–
"CC(C)(C#N)c1cccc(C(=O)Nc2cccc(Oc3ccc4nc(NC(=O)C5CC5)sc4c3)c2)c1 [Example A12, 3-(1-cyano-1-methylethyl)-N-[3-({2-[(cyclopropylcarbonyl)amino]-1,3-benzothiazol-6-yl}oxy)phenyl]benzamide]",< 500,100,–
"CN1CCN(CC(=O)Nc2nc3ccc(Oc4cccc(NC(=O)c5cccc(C(C)(C)C#N)c5)c4)cc3s2)CC1 [Example A13, 3-(1-cyano-1-methylethyl)-N-{3-[(2-{[(4-methylpiperazin-1-yl)acetyl]amino}-1,3-benzothiazol-6-yl)oxy]phenyl}benzamide]",< 500,–,–
"COc1ccc(NC(=O)c2cccc(C(C)(C)C#N)c2)cc1Oc1ccc2nc(NC(=O)C3CC3)sc2c1 [Example A21, 3-(1-cyano-1-methylethyl)-N-[3-({2-[(cyclopropylcarbonyl)amino]-1,3-benzothiazol-6-yl}oxy)-4-methoxyphenyl]benzamide]",–,98,< 500
"COc1ccc(NC(=O)c2cccc(C(C)(C)C#N)c2)cc1Oc1ccc2nc(NC(=O)CN3CCN(C)CC3)sc2c1 [Example A23, 3-(1-cyano-1-methylethyl)-N-{4-methoxy-3-[(2-{[(4-methylpiperazin-1-yl)acetyl]amino}-1,3-benzothiazol-6-yl)oxy]phenyl}benzamide]",< 500,–,–
"CC(=O)Nc1nc2ccc(Oc3cccc(NC(=O)c4cccc(C(C)(C)C#N)c4Cl)c3)cc2s1 [Example A41, N-(3-{[2-(acetylamino)-1,3-benzothiazol-6-yl]oxy}phenyl)-2-chloro-3-(1-cyano-1-methylethyl)benzamide]",< 500,–,–
"CC(=O)Nc1nc2ccc(Oc3cc(NC(=O)c4cccc(C(C)(C)C#N)c4Cl)ccc3F)cc2s1 [Example A47, N-(3-{[2-(acetylamino)-1,3-benzothiazol-6-yl]oxy}-4-fluorophenyl)-2-chloro-3-(1-cyano-1-methylethyl)benzamide]",< 500,–,–
"CC(=O)Nc1nc2ccc(Oc3ccc(C)c(NC(=O)c4cccc(C(C)(C)C#N)c4)c3)cc2s1 [Example A49, N-(5-{[2-(acetylamino)-1,3-benzothiazol-6-yl]oxy}-2-methylphenyl)-3-(1-cyano-1-methylethyl)benzamide]",< 500,–,–
